Test results from patent US20200246322A1, “METHOD FOR TREATING GLUTEN-RELATED ALLERGIES AND I[…] WITH LOPERAMIDE” (priority 2019, published 2020).

Test system: gluten intolerance
Assay: treating/preventing gluten intolerance with oral loperamide (experience of the inventor)
Type: in vivo, patient
Details: dosage titrated, as long as it is the type of gluten intolerance that responds to loperamide and the proper daily dosage is adhered to
Source text: The present invention may include a new use of the existing OTC medication (generic: loperamide, brand: Immodium™) to be taken orally by patient suffering from gluten allergy/intolerance symptoms. The Loperamide is taken until the gluten allergy/intolerance symptoms are relieved.
The amount of loperamide needed to treat/prevent the symptoms of gluten intolerance can be quite a bit higher than the levels that can cause constipation. In that case, a slow increase in dosage may be necessary in order to create a resistance to the constipatory effects. Titration may be necessary to reach the proper dosage to eliminate the symptoms, starting preferably with the standard lowest dosage of loperamide recommended to treat diarrhea (2 mg tablet after the first loose stool, 1 tablet after each subsequent loose stool) and adding 1×2 mg tablet every 6 hours until stool consistency normalizes, at which point the symptoms of gluten intolerance will disappear completely, if it is the type of gluten intolerance that is treatable with loperamide. In the experience of the inventor, the rate of successfully treating/preventing gluten intolerance completely is 100%, as long as it is the type of gluten intolerance that responds to loperamide, and the proper daily dosage is adhered to once it is determined to be effective for the patient.

SMILES: CN(C)C(=O)C(CCN1CCC(O)(c2ccc(Cl)cc2)CC1)(c1ccccc1)c1ccccc1 [loperamide]
- rate of successfully treating/preventing gluten intolerance completely: 100%
